Test results from patent US10721934B2, “Enhanced preservative” (Arch Chemicals, Inc., priority 2013, dated 2020).

How the values were obtained:
Assay type in all cases: cell-based
Aspergillus brasiliensis = assay: MIC test, 96 well microtiter plate; conditions: Aspergillus brasiliensis, read-out: Minimum Inhibitory Concentration
Procedure: (§1) MIC set up: A 96 well microtiter plate Minimum Inhibitory Concentration (MIC) test was run in broth suitable for the test organism. Serially diluted actives were prepared in sterilized water, and the start-up concentration varied depending on the efficacy range. Inocula prepared in 2× suitable broth was added into each well, and the final concentrations of bacteria were adjusted to approximately 5×10^5.
(§2) Further MIC tests were conducted using different amine compounds in combination with a pyrithione and two different isothiazolinones. The procedures described in Example No. 1 were used.

Aureobasidium pullulans = assay: MIC test, 96 well microtiter plate; conditions: Aureobasidium pullulans, read-out: Minimum Inhibitory Concentration
Procedure: as §1, §2

Candida albicans = assay: MIC test, 96 well microtiter plate; conditions: Candida albicans, read-out: Minimum Inhibitory Concentration
Procedure: as §1, §2

Escherichia coli = assay: MIC test, 96 well microtiter plate; conditions: Escherichia coli, read-out: Minimum Inhibitory Concentration
Procedure: as §1, §2

Staphylococcus aureus = assay: MIC test, 96 well microtiter plate; conditions: Staphylococcus aureus, read-out: Minimum Inhibitory Concentration
Procedure: as §1, §2

[1] = system: mixed bacterial inoculum (Pseudomonas aeruginosa, Enterobacter cloacae, Escherichia coli, Acinetobacter calcoaceticus); assay: Repeated inoculation of standard acrylic paint, streak plate rating
Procedure: In the following experiments, a pyrithione, an isothiazolinone, and a biocide enhancing agent in accordance with the present disclosure were combined with a standard acrylic paint. The concentrations of the pyrithione, the isothiazolinone and the biocide enhancing agent were varied. The pyrithione, the isothiazolinone and the biocide enhancing agent were added alone and in various mixtures to the standard acrylic paint.
The acrylic paint was then inoculated three times using a mixed bacterial inoculum. The bacterial inoculum, which comprised a bacterial suspension in water, contained the following four bacteria in equal proportions.
The samples were streak plated at 24, 48, and 72 hours after inoculation. The streak plates were rated as follows;

Q: Which results are given for `CCCCCCCCCCCC[N+](C)(C)[O-]` [CDMA Oxide, cocodimethylamine oxide]?
A: MIC (Aspergillus brasiliensis): 17.4 µg/mL; MIC (Aureobasidium pullulans): 13.9 µg/mL; MIC (Candida albicans): 13.9 µg/mL; MIC (Escherichia coli): 557 µg/mL; MIC (Staphylococcus aureus): 13.9 µg/mL; streak plate rating ([1]; Set Five, CDMA Oxide 1200 ppm, 1st inoculation 24 h): 5 (>45 viable microorganisms Severely contaminated); streak plate rating ([1]; Set Five, CDMA Oxide 1200 ppm, 1st inoculation 48 h): 5 (>45 viable microorganisms Severely contaminated); streak plate rating ([1]; Set Five, CDMA Oxide 1200 ppm, 1st inoculation 72 h): 5 (>45 viable microorganisms Severely contaminated); streak plate rating ([1]; Set Five, CDMA Oxide 1200 ppm, 2nd inoculation 24 h): 5 (>45 viable microorganisms Severely contaminated); streak plate rating ([1]; Set Five, CDMA Oxide 1200 ppm, 2nd inoculation 48 h): 5 (>45 viable microorganisms Severely contaminated); streak plate rating ([1]; Set Five, CDMA Oxide 1200 ppm, 2nd inoculation 72 h): 5 (>45 viable microorganisms Severely contaminated); streak plate rating ([1]; Set Five, CDMA Oxide 1200 ppm, 3rd inoculation 24 h): 5 (>45 viable microorganisms Severely contaminated); streak plate rating ([1]; Set Five, CDMA Oxide 1200 ppm, 3rd inoculation 48 h): 5 (>45 viable microorganisms Severely contaminated); streak plate rating ([1]; Set Five, CDMA Oxide 1200 ppm, 3rd inoculation 72 h): 5 (>45 viable microorganisms Severely contaminated); streak plate rating ([1]; Set Two, CDMA Oxide alone, ppm not given, 1st inoculation 24 h): 5 (>45 viable microorganisms Severely contaminated); streak plate rating ([1]; Set Two, CDMA Oxide alone, ppm not given, 1st inoculation 48 h): 5 (>45 viable microorganisms Severely contaminated); streak plate rating ([1]; Set Two, CDMA Oxide alone, ppm not given, 1st inoculation 72 h): 5 (>45 viable microorganisms Severely contaminated); streak plate rating ([1]; Set Two, CDMA Oxide alone, ppm not given, 2nd inoculation 24 h): 5 (>45 viable microorganisms Severely contaminated); streak plate rating ([1]; Set Two, CDMA Oxide alone, ppm not given, 2nd inoculation 48 h): 5 (>45 viable microorganisms Severely contaminated); streak plate rating ([1]; Set Two, CDMA Oxide alone, ppm not given, 2nd inoculation 72 h): 5 (>45 viable microorganisms Severely contaminated); streak plate rating ([1]; Set Two, CDMA Oxide alone, ppm not given, 3rd inoculation 24 h): 5 (>45 viable microorganisms Severely contaminated); streak plate rating ([1]; Set Two, CDMA Oxide alone, ppm not given, 3rd inoculation 48 h): 5 (>45 viable microorganisms Severely contaminated); streak plate rating ([1]; Set Two, CDMA Oxide alone, ppm not given, 3rd inoculation 72 h): 5 (>45 viable microorganisms Severely contaminated)
